Our source for the remaining binding values is US11208412B2 (DAEGU-GYEONGBUK MEDICAL INNOVATION FOUNDATION, priority 2017, dated 2021).

Structures are written as SMILES.

Holding throughout (test): Kinase selectivity, DiscoverX scanMAX Kinase assay panel (% control)
Assay type in all cases: binding

Assay [1] deals with T1, kinases of the scanMAX Kinase assay panel (Homo sapiens, UniProt O14757).
T1 construct: purchased DiscoverX Co. (contract measurement) scanMAX Kinase assay panel
T1 sequence (O14757 1-476): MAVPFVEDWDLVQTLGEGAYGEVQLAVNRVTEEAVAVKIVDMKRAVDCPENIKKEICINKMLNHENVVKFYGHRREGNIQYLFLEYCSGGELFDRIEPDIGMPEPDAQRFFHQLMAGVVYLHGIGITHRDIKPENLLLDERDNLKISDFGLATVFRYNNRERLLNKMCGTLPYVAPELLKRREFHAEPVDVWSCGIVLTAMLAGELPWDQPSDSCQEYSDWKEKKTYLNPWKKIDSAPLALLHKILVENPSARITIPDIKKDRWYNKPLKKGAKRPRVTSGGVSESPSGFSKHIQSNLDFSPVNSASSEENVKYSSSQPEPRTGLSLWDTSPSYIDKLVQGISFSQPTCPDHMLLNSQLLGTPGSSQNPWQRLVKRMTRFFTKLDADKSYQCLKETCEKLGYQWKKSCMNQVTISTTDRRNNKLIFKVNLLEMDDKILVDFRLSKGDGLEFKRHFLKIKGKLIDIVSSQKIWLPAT
The following applies: CHEK1; 1 uM. An outline of the steps:
(§1)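 Read-out is % control, normalised so a positive-control compound sits at 0% and DMSO at 100%: (test − positive)/(negative − positive)×100. Each kinase received the compound at 1 uM in DMSO. A value below 35% counts as activity.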

For assay [2], the target named is T2, kinases of the scanMAX Kinase assay panel (Homo sapiens, UniProt Q9Y2H1).
T2 construct: purchased DiscoverX Co. (contract measurement) scanMAX Kinase assay panel
The conditions noted are these: NDR2; 1 uM. An outline of the steps:
as §1

Assay [3] deals with T3, kinases of the scanMAX Kinase assay panel (Homo sapiens, UniProt Q9Y3S1).
T3 construct: purchased DiscoverX Co. (contract measurement) scanMAX Kinase assay panel
The following applies: kinase WNK2; 1 uM in DMSO. An outline of the steps: as §1

Assay [4] addresses T4, kinases of the scanMAX Kinase assay panel (Homo sapiens, UniProt Q56UN5).
T4 construct: purchased DiscoverX Co. (contract measurement) scanMAX Kinase assay panel
T4 sequence (Q56UN5 1-1328): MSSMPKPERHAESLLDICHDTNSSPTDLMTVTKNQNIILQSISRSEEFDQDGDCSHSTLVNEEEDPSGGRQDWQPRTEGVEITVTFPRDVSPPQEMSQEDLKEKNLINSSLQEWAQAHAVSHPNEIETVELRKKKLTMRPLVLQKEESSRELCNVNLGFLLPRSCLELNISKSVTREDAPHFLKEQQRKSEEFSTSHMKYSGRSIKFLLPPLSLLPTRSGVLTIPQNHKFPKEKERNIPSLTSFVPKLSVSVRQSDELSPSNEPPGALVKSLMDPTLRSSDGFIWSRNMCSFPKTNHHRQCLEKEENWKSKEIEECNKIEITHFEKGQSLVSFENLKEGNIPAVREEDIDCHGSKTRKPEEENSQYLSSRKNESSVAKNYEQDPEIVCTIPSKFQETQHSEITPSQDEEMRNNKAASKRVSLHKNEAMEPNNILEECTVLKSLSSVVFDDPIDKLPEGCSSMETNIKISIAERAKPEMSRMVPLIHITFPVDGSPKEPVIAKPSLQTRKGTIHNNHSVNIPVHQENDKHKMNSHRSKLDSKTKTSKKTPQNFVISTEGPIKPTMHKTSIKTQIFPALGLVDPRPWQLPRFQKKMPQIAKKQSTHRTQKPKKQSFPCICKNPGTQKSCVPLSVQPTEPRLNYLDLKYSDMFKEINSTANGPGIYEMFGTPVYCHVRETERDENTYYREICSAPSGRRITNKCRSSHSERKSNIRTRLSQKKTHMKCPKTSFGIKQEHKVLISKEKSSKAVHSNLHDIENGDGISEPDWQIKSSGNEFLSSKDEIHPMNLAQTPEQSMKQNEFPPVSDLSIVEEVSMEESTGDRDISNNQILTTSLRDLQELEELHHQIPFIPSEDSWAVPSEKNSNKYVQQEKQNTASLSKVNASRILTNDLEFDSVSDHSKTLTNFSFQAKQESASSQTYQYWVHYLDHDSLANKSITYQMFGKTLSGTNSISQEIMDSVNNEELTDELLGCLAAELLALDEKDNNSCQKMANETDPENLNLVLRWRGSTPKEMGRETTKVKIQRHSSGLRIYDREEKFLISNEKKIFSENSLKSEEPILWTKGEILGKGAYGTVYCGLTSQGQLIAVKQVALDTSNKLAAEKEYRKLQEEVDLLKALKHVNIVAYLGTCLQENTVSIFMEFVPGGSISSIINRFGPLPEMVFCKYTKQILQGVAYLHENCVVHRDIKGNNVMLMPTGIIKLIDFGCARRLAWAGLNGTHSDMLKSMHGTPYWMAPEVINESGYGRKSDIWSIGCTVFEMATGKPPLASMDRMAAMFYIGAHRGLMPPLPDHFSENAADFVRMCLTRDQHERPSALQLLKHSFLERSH
The following applies: kinase YSK4; 1 uM in DMSO. An outline of the steps:
as §1

Assay [5] concerns the target T5, kinases of the scanMAX Kinase assay panel (Homo sapiens, UniProt P22694).
T5 construct: purchased DiscoverX Co. (contract measurement) scanMAX Kinase assay panel
The conditions noted are these: PKAC-beta; 1 uM. An outline of the steps: as §1

Assay [6] concerns the target T6, kinases of the scanMAX Kinase assay panel (Homo sapiens, UniProt P35590).
T6 construct: purchased DiscoverX Co. (contract measurement) scanMAX Kinase assay panel
The conditions noted are these: kinase TIE1; 1 uM in DMSO. An outline of the steps: as §1

Assay [7] addresses T7, kinases of the scanMAX Kinase assay panel (Homo sapiens, UniProt Q9Y2I7).
T7 construct: purchased DiscoverX Co. (contract measurement) scanMAX Kinase assay panel
The following applies: PIKFYVE; 1 uM. In a few lines: as §1

Assay [8] has as its target T8, kinases of the scanMAX Kinase assay panel (Homo sapiens, UniProt P57059).
T8 construct: purchased DiscoverX Co. (contract measurement) scanMAX Kinase assay panel
The following applies: kinase SIK; 1 uM in DMSO. An outline of the steps: as §1

Assay [9] concerns the target T9, kinases of the scanMAX Kinase assay panel (Homo sapiens, UniProt P00519).
T9 construct: purchased DiscoverX Co. (contract measurement) scanMAX Kinase assay panel
The conditions noted are these: 1 uM. An outline of the steps: as §1

Assay [10] deals with T10, kinases of the scanMAX Kinase assay panel (Homo sapiens, UniProt O00506).
T10 construct: purchased DiscoverX Co. (contract measurement) scanMAX Kinase assay panel
The following applies: kinase YSK1; 1 uM in DMSO. In a few lines:
as §1

The target in assay [11] is T11, kinases of the scanMAX Kinase assay panel (Homo sapiens, UniProt O43293).
T11 construct: purchased DiscoverX Co. (contract measurement) scanMAX Kinase assay panel
The following applies: DAPK3; 1 uM. An outline of the steps:
as §1

T11 sequence (O43293 whole entry): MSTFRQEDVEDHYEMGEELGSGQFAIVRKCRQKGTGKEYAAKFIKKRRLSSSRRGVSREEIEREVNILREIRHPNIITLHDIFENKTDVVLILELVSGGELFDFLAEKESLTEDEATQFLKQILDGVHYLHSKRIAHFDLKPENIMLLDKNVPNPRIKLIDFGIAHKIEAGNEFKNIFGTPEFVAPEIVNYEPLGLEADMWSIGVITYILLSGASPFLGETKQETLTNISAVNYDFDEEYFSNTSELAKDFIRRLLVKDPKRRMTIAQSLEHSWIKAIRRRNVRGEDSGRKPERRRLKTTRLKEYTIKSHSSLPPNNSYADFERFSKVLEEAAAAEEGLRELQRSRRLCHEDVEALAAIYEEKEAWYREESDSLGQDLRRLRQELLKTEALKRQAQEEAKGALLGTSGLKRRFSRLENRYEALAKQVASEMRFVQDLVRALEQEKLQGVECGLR
T2 sequence (Q9Y2H1 whole entry): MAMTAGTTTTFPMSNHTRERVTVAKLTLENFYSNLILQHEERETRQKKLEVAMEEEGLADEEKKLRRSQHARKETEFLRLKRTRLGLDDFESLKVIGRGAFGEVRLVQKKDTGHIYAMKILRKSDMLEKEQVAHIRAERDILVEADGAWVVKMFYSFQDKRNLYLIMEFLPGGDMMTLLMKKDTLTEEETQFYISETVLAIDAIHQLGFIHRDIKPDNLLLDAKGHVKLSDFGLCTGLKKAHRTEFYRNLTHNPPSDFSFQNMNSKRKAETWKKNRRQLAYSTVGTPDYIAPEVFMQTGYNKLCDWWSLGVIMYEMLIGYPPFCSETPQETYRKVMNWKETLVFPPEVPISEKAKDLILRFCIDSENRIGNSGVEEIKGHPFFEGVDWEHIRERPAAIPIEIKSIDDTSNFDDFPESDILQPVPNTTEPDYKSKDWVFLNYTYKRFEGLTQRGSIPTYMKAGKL
T9 sequence (P00519 whole entry): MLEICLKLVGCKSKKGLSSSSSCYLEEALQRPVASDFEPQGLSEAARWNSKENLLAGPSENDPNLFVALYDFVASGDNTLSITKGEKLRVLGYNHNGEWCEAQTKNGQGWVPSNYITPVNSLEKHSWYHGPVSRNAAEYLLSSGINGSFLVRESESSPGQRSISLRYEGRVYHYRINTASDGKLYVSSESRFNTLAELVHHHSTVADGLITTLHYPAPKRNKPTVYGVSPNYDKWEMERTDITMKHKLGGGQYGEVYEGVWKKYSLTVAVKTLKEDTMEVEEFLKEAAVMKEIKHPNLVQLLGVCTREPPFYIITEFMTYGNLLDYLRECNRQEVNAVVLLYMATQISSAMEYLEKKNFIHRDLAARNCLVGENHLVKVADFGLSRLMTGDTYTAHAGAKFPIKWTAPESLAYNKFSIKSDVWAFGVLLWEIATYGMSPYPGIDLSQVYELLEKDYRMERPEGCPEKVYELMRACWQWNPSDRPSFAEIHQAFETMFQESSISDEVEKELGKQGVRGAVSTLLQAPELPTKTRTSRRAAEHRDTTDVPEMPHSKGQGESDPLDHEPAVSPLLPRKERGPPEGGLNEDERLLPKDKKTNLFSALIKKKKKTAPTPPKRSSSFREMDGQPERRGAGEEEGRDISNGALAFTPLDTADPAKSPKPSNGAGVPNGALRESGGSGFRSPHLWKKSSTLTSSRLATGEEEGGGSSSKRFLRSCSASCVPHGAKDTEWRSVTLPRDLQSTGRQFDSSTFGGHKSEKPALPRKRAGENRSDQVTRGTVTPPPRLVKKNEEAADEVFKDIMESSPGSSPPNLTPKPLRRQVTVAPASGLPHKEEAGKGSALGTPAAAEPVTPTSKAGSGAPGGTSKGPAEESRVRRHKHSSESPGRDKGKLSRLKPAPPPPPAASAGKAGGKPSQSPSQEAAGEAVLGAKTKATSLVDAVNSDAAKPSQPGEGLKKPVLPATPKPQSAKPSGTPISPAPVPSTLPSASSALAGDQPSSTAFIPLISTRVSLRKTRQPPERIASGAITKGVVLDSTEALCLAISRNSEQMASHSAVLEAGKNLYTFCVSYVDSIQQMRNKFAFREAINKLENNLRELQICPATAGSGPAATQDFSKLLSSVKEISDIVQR
T8 sequence (P57059 whole entry): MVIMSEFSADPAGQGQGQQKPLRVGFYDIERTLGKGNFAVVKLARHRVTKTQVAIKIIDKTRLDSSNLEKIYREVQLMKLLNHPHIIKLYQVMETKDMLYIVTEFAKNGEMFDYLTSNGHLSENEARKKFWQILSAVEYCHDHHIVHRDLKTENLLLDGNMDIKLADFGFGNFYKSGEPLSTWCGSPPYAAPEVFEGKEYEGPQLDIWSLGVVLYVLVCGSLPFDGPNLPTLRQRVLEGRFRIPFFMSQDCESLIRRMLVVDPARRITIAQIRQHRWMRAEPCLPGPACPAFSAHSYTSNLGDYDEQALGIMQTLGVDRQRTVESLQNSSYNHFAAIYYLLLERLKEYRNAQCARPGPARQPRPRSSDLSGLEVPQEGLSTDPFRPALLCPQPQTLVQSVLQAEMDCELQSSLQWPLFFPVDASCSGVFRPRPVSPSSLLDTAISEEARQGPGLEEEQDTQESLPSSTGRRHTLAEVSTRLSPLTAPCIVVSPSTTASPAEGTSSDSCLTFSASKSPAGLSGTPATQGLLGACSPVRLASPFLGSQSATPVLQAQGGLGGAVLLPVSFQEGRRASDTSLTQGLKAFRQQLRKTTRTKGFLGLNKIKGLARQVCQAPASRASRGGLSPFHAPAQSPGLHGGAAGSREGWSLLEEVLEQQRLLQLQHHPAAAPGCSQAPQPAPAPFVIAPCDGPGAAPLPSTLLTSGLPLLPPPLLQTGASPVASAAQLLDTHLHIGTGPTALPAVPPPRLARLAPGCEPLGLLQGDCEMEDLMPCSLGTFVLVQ
T6 sequence (P35590 22-1138): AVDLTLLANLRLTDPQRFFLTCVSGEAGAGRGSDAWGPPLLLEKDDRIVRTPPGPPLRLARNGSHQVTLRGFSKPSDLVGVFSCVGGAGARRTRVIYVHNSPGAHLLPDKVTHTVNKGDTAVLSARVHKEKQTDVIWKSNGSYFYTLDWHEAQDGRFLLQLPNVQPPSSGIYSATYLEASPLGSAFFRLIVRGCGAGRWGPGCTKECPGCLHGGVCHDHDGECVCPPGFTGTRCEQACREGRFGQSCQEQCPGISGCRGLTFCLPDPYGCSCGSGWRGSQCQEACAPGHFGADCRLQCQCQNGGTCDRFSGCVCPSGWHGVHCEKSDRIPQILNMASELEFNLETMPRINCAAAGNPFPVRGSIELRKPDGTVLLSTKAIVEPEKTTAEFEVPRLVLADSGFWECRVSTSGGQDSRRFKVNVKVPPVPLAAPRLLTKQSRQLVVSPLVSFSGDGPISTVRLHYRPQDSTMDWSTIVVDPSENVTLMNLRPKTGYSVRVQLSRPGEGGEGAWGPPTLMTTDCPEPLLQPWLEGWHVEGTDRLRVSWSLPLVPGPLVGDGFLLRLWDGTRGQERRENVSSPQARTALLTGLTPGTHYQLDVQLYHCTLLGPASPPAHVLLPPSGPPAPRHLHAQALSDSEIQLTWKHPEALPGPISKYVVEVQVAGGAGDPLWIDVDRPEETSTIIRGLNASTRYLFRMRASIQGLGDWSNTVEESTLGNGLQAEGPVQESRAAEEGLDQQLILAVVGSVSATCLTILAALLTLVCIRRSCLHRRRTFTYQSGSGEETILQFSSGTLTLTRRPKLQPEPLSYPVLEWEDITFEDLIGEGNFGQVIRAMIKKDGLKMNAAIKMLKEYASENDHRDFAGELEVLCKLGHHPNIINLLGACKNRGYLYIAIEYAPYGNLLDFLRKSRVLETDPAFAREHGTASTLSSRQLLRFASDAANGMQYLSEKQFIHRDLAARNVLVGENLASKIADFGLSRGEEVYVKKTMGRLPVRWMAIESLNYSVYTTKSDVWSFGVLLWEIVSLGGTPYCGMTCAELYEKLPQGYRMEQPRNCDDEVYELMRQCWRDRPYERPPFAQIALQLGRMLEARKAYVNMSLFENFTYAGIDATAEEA
T10 sequence (O00506 whole entry): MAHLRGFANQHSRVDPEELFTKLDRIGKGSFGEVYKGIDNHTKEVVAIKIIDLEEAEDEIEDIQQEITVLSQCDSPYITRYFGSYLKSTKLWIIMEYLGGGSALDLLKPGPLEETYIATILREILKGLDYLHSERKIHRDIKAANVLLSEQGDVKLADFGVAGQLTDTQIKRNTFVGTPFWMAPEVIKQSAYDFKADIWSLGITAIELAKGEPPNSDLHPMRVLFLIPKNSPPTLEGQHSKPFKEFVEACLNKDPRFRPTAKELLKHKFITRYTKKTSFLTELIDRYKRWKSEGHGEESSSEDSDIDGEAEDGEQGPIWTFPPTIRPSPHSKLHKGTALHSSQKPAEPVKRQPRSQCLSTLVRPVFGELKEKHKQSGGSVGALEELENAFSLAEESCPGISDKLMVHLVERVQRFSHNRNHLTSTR

As to `CNc1nc(Nc2ccc(C(=O)N3CCOCC3)cc2OC)nc2[nH]cc(C#N)c12` [Example 1, 2-((2-methoxy-4-(morpholine-4-carbonyl)phenyl)amino)-4-(methylamino)-7H-pyrrolo[2,3-d]pyrimidine-5-carbonitrile], the remaining binding at 1 µM is 85% in assay [1]; 98% in [2]; 52% in assay [3]; 12% in [4]; 89% in [5]; 96% in [6]. Further, the remaining binding at 1 µM in assay [7] was 73%; in assay [8], 97%; in assay [9] (ABL1-nonphosphorylated) it was 92%; in assay [9] (ABL1-phosphorylated), 88%; in [10], 97%; in assay [11], 12%.
In the case of `CC1(Nc2nc(Nc3cnn([C@H]4CCN(C5COC5)C[C@@H]4F)c3Cl)nc3[nH]cc(C#N)c23)CC1` [Example 52, 2-((5-chloro-1-((3S,4S)-3-fluoro-1-(oxetane-3-yl)piperidine-4-yl)-1H-pyrazole-4-yl)amino)((1-methylcyclopropyl)amino)-7H-pyrrolo[2,3-d]pyrimidine-5-carbonitrile], the remaining binding at 1 µM turned out to be 26% in [1]; 31% in assay [2]; 56% in assay [3]; 0% in [4]; 95% in assay [5]; 19% in assay [6]. Moreover, the remaining binding at 1 µM in assay [7] was determined as 65%; in assay [8], 78%; in [9] (ABL1-nonphosphorylated) it was 6.4%; in assay [9] (ABL1-phosphorylated), 1.8%; in [10] it was 28%; in [11], 8.4%.
Consider `CCNc1nc(Nc2ccc(C(=O)N3CCC(N4CCOCC4)CC3)cc2OC)nc2[nH]cc(C(F)(F)F)c12` [Example 104, (4-((4-(ethylamino)-5-(trifluoromethyl)-7H-pyrrolo[2,3-d]pyrimidine-2-yl)amino)-3-methoxyphenyl)(4-morpholinopiperidine-1-yl)methanone], for which the remaining binding at 1 µM in assay [1] amounted to 100%; in [2] it was 100%; in assay [3], 100%; in [4], 94%; in [5] it was 100%; in assay [6], 100%. Further, the remaining binding at 1 µM worked out at 100% in [7]; 100% in [8]; 91% in [9] (ABL1-nonphosphorylated); 63% in assay [9] (ABL1-phosphorylated); 81% in assay [10]; 56% in assay [11].
